Laboratory results as given in patent US20070105875A1, “Fungicidal mixtures” (priority 2004, published 2007).

Test system: Corticium sasakii (syn. Rhizoctonia solani)
Assay: Activity against sheath blight on rice caused by Corticium sasakii (protective spray test on potted rice plants)
Type: in vivo
Settings: individual active compound, rice cultivar Tai-Nong 67, evaluation after 11 days, untreated control 90% infection
Description: The active compounds, separately or jointly, were prepared as a stock solution with 0.25% by weight of active compound in acetone or DMSO. 1% by weight of the emulsifier Uniperol® EL (wetting agent having emulsifying and dispersing action based on ethoxylated alkylphenols) was added to this solution, and the solution was diluted with water to the desired concentration.
Activity Against Sheath Blight on Rice Caused by Corticium sasakii (syn. Rhizoctonia solani)
Pots of rice plants of the cultivar “Tai-Nong 67” were sprayed to runoff point with an aqeuous suspension having the concentration of active compound stated below. The next day, oat grains infected with Corticium sasakii were placed into the pots (in each case 5 grains per pot). The plants were then placed in a chamber at 26° C. and maximum atmospheric humidity. After 11 days, the sheath blight on the untreated but infected control plants had developed to such an extent that the infection could be determined visually in %.
Evaluation is carried out by determining the infected leaf areas in percent. These percentages were converted into efficacies.
The efficacy (E) is calculated as follows using Abbot's formula: E=(1−α/β)·100 α corresponds to the fungicidal infection of the treated plants in % and β corresponds to the fungicidal infection of the untreated (control) plants in %
An efficacy of 0 means that the infection level of the treated plants corresponds to that of the untreated control plants; an efficacy of 100 means that the treated plants are not infected.
The expected efficacies of the mixtures of active compounds are determined using Colby's formula [R. S. Colby, Weeds 15, 20-22 (1967)] and compared with the observed efficacies.
Colby's Formula: E=x+y−x·y/100 • E expected efficacy, expressed in % of the untreated control, when using the mixture of the active compounds A and B at the concentrations a and b • x efficacy, expressed in % of the untreated control, when using active compound A at the concentration a • y efficacy, expressed in % of the untreated control, when using active compound B at the concentration b

SMILES	Efficacy in % of the untreated control (1 ppm in the spray liquor) [%]	Efficacy in % of the untreated control (4 ppm in the spray liquor) [%]
CC1CCN(c2c(-c3c(F)cccc3Cl)c(Cl)nc3ncnn23)CC1 [A]	0	
C[C@H](Nc1c(-c2c(F)cc(F)cc2F)c(Cl)nc2ncnn12)C(F)(F)F [B]	0	
CC1CCN(c2c(-c3c(F)cc(F)cc3F)c(Cl)nc3ncnn23)CC1 [I, 5-chloro-7-(4-methylpiperidin-1-yl)-6-(2,4,6-trifluorophenyl)-[1,2,4]triazolo[1,5-a]pyrimidine]	33	
CO/N=C(/C(=O)OC)c1ccccc1COc1ccccc1C [II (kresoxim-methyl), methyl methoxyimino-(2-o-tolyloxymethylphenyl)acetate]	0	0
